Measurements from ChEMBL document CHEMBL4507290 (2021).

Columns and labels:
[1] = system: Phosphatidylinositol 4,5-bisphosphate 3-kinase catalytic subunit alpha isoform (Homo sapiens), P42336 [M1043I]; settings: Compound concentration 1000.0 nM
[2] = molecular target: Cyclin-dependent kinase 4 (Homo sapiens) (UniProt P11802); settings: Compound concentration 1000.0 nM
[3] = molecular target: cAMP-dependent protein kinase catalytic subunit PRKX (Homo sapiens) (UniProt P51817); settings: Compound concentration 1000.0 nM
[4] = molecular target: Mitogen-activated protein kinase kinase kinase 12 (Homo sapiens) (UniProt Q12852); settings: Compound concentration 1000.0 nM
[5] = molecular target: Platelet-derived growth factor receptor alpha (Homo sapiens) (UniProt P16234); settings: Compound concentration 1000.0 nM
[6] = molecular target: Ephrin type-A receptor 4 (Homo sapiens) (UniProt P54764); settings: Compound concentration 1000.0 nM
[7] = molecular target: Hormonally up-regulated neu tumor-associated kinase (Homo sapiens) (UniProt P57058); settings: Compound concentration 1000.0 nM
[8] = system: Receptor-type tyrosine-protein kinase FLT3 (Homo sapiens), P36888 [D835Y]; settings: Compound concentration 1000.0 nM
[9] = molecular target: Dual specificity mitogen-activated protein kinase kinase 1 (Homo sapiens) (UniProt Q02750); settings: Compound concentration 1000.0 nM
[10] = molecular target: Non-receptor tyrosine-protein kinase TYK2 (Homo sapiens) (UniProt P29597); settings: Compound concentration 1000.0 nM
[11] = molecular target: Tyrosine-protein kinase receptor Tie-1 (Homo sapiens) (UniProt P35590); settings: Compound concentration 1000.0 nM
[12] = molecular target: G protein-coupled receptor kinase 3 (Homo sapiens) (UniProt P35626); settings: Compound concentration 1000.0 nM
[13] = molecular target: Serine/threonine-protein kinase SIK3 (Homo sapiens) (UniProt Q9Y2K2); settings: Compound concentration 1000.0 nM
[14] = molecular target: Tyrosine-protein kinase Fes/Fps (Homo sapiens) (UniProt P07332); settings: Compound concentration 1000.0 nM
[15] = molecular target: Serine/threonine-protein kinase 32C (Homo sapiens) (UniProt Q86UX6); settings: Compound concentration 1000.0 nM
[16] = molecular target: Mitogen-activated protein kinase 4 (Homo sapiens) (UniProt P31152); settings: Compound concentration 1000.0 nM
[17] = molecular target: Serine/threonine-protein kinase PLK3 (Homo sapiens) (UniProt Q9H4B4); settings: Compound concentration 1000.0 nM
[18] = molecular target: TGF-beta receptor type-2 (Homo sapiens) (UniProt P37173); settings: Compound concentration 1000.0 nM
[19] = molecular target: Ribosomal protein S6 kinase alpha-1 (Homo sapiens) (UniProt Q15418); settings: Compound concentration 1000.0 nM
[20] = molecular target: Maternal embryonic leucine zipper kinase (Homo sapiens) (UniProt Q14680); settings: Compound concentration 1000.0 nM
[21] = molecular target: Dual specificity protein kinase CLK4 (Homo sapiens) (UniProt Q9HAZ1); settings: Compound concentration 1000.0 nM
[22] = molecular target: RAC-gamma serine/threonine-protein kinase (Homo sapiens) (UniProt Q9Y243); settings: Compound concentration 1000.0 nM
[23] = molecular target: 5-hydroxytryptamine receptor 3A (Homo sapiens) (UniProt P46098); settings: Compound concentration 10.0 uM
[24] = molecular target: Serine/threonine-protein kinase MRCK gamma (Homo sapiens) (UniProt Q6DT37); settings: Compound concentration 1000.0 nM
[25] = molecular target: Muscle, skeletal receptor tyrosine-protein kinase (Homo sapiens) (UniProt O15146); settings: Compound concentration 1000.0 nM
[26] = molecular target: Serine/threonine-protein kinase ICK (Homo sapiens) (UniProt Q9UPZ9); settings: Compound concentration 1000.0 nM
[27] = molecular target: Mast/stem cell growth factor receptor Kit (Homo sapiens) (UniProt P10721); settings: Compound concentration 1000.0 nM
[28] = molecular target: RAF proto-oncogene serine/threonine-protein kinase (Homo sapiens) (UniProt P04049); settings: Compound concentration 1000.0 nM
[29] = molecular target: Cyclin-dependent kinase 3 (Homo sapiens) (UniProt Q00526); settings: Compound concentration 1000.0 nM
[30] = molecular target: Tyrosine-protein kinase Fyn (Homo sapiens) (UniProt P06241); settings: Compound concentration 1000.0 nM
[31] = molecular target: Ribosomal protein S6 kinase alpha-3 (Homo sapiens) (UniProt P51812); settings: Compound concentration 1000.0 nM
[32] = molecular target: Calcium-dependent protein kinase 1 (Plasmodium falciparum) (UniProt P62344); settings: Compound concentration 1000.0 nM
[33] = molecular target: Non-receptor tyrosine-protein kinase TNK1 (Homo sapiens) (UniProt Q13470); settings: Compound concentration 1000.0 nM
[34] = molecular target: Dual specificity protein kinase CLK1 (Homo sapiens) (UniProt P49759); settings: Compound concentration 1000.0 nM
[35] = molecular target: Cyclin-dependent kinase 14 (Homo sapiens) (UniProt O94921); settings: Compound concentration 1000.0 nM
[36] = molecular target: Serine/threonine-protein kinase Nek4 (Homo sapiens) (UniProt P51957); settings: Compound concentration 1000.0 nM
[37] = molecular target: Calcium/calmodulin-dependent protein kinase type II subunit alpha (Homo sapiens) (UniProt Q9UQM7); settings: Compound concentration 1000.0 nM
[38] = molecular target: Fibroblast growth factor receptor 2 (Homo sapiens) (UniProt P21802); settings: Compound concentration 1000.0 nM
[39] = molecular target: TRAF2 and NCK-interacting protein kinase (Homo sapiens) (UniProt Q9UKE5); settings: Compound concentration 1000.0 nM
[40] = system: Tyrosine-protein kinase ABL1 (Homo sapiens), P00519 [M351T]; settings: Compound concentration 1000.0 nM
[41] = molecular target: Serine/threonine-protein kinase TAO1 (Homo sapiens) (UniProt Q7L7X3); settings: Compound concentration 1000.0 nM
[42] = molecular target: Serine/threonine-protein kinase Nek1 (Homo sapiens) (UniProt Q96PY6); settings: Compound concentration 1000.0 nM
[43] = molecular target: Serine/threonine-protein kinase ULK3 (Homo sapiens) (UniProt Q6PHR2); settings: Compound concentration 1000.0 nM
[44] = system: Phosphatidylinositol 4,5-bisphosphate 3-kinase catalytic subunit alpha isoform (Homo sapiens), P42336 [E545A]; settings: Compound concentration 1000.0 nM
[45] = molecular target: Serine/threonine-protein kinase Nek7 (Homo sapiens) (UniProt Q8TDX7); settings: Compound concentration 1000.0 nM
Serine/threonine-protein kinase Nek7 (Homo sapiens), sequence (Q8TDX7 whole entry, looked up): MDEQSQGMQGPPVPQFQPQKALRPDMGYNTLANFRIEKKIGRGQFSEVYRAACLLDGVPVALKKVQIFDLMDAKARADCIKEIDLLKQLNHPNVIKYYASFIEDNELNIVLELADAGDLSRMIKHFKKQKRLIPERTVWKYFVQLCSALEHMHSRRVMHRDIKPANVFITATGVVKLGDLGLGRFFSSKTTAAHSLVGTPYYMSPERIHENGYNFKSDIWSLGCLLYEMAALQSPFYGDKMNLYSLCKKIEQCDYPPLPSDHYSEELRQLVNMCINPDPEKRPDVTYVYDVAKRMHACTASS

5-hydroxytryptamine receptor 3A (Homo sapiens), sequence (P46098 whole entry): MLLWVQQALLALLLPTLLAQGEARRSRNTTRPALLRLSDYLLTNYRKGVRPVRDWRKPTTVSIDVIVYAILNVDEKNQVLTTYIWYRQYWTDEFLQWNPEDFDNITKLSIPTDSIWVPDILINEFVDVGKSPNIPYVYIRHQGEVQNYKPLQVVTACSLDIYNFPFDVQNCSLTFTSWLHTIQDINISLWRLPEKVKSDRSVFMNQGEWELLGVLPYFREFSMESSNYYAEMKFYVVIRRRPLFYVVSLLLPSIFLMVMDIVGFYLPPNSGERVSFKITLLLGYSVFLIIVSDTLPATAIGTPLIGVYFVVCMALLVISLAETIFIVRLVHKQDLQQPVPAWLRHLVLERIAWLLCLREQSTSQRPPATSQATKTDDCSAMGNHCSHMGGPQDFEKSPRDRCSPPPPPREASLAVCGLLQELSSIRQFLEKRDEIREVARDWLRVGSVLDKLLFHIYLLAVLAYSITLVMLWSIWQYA
Serine/threonine-protein kinase PLK3 (Homo sapiens), sequence (Q9H4B4 whole entry, looked up): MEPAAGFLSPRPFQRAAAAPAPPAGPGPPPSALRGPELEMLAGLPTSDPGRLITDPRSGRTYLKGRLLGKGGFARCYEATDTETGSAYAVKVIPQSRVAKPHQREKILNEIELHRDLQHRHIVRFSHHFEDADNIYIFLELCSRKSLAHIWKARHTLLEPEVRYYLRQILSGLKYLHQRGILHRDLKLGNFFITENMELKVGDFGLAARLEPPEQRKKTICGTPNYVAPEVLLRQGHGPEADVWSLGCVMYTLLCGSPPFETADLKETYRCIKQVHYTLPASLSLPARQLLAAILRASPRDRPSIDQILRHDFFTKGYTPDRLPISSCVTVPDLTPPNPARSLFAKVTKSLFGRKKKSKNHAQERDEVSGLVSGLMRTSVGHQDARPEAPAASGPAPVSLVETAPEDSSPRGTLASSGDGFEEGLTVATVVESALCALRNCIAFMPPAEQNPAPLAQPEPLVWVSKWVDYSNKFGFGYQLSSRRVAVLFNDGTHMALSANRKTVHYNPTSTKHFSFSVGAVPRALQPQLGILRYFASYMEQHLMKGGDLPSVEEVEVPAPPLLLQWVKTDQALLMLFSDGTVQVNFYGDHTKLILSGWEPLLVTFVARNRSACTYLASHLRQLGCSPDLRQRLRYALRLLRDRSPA
Serine/threonine-protein kinase Nek1 (Homo sapiens), sequence (Q96PY6 whole entry): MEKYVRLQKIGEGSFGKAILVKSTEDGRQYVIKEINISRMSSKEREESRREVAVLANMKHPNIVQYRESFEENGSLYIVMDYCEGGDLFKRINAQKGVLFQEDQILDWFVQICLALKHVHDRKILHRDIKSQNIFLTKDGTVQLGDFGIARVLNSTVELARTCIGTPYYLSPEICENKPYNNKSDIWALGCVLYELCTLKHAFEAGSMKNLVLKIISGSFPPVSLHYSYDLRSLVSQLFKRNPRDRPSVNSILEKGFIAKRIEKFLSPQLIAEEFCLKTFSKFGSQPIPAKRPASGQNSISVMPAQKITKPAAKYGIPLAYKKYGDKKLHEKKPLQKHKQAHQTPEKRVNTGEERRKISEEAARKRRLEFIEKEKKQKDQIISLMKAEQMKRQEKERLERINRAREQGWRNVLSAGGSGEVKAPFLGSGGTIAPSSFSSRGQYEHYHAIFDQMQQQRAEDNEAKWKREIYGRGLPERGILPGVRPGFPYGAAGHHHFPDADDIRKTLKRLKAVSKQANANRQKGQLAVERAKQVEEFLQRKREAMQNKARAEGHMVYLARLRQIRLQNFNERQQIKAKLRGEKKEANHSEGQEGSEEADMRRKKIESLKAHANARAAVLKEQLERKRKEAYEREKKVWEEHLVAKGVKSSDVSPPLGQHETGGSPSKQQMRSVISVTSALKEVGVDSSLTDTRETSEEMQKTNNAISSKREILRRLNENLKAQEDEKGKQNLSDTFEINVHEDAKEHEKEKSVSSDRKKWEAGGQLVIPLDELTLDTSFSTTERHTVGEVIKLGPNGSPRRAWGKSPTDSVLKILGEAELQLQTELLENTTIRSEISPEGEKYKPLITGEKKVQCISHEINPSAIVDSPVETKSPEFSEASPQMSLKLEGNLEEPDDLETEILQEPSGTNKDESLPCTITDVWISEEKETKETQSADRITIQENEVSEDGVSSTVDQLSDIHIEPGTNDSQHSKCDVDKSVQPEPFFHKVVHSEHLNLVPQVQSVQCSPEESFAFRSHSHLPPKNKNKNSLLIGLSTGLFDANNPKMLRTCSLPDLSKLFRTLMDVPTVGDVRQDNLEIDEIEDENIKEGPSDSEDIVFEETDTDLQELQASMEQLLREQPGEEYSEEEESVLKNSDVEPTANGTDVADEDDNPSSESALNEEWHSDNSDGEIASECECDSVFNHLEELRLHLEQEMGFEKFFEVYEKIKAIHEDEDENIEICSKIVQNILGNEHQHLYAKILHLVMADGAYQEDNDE
cAMP-dependent protein kinase catalytic subunit PRKX (Homo sapiens), sequence (P51817 whole entry): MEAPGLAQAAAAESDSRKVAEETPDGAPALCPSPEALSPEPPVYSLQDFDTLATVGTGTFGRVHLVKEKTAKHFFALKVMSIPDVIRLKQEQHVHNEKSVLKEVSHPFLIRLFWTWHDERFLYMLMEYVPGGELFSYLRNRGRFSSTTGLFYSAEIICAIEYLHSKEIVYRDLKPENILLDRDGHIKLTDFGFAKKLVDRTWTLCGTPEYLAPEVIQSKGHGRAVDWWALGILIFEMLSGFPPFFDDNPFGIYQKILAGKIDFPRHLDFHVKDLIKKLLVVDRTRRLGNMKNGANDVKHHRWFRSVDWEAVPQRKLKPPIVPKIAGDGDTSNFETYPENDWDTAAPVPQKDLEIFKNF
Fibroblast growth factor receptor 2 (Homo sapiens), sequence (P21802 22-821 limits assumed): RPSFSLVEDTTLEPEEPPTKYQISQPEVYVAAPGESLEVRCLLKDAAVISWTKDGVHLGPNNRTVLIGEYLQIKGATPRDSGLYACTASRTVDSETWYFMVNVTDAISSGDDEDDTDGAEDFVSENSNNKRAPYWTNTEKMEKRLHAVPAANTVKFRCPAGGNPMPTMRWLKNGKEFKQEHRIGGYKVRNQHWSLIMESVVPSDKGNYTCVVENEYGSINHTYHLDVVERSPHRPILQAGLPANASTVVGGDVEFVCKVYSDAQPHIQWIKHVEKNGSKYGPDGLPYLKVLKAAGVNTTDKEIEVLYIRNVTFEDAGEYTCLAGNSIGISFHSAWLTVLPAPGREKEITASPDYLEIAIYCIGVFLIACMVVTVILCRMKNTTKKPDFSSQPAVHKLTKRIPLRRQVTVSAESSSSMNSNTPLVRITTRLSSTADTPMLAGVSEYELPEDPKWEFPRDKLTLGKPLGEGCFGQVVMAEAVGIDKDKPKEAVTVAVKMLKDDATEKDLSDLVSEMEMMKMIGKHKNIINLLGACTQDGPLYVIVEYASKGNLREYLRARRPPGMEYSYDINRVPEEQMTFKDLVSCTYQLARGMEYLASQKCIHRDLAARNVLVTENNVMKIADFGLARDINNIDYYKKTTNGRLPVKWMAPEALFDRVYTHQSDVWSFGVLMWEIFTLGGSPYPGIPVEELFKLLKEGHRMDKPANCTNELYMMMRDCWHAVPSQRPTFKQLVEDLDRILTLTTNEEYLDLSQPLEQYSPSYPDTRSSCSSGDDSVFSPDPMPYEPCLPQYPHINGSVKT
Serine/threonine-protein kinase ULK3 (Homo sapiens), sequence (Q6PHR2 whole entry, canonical isoform): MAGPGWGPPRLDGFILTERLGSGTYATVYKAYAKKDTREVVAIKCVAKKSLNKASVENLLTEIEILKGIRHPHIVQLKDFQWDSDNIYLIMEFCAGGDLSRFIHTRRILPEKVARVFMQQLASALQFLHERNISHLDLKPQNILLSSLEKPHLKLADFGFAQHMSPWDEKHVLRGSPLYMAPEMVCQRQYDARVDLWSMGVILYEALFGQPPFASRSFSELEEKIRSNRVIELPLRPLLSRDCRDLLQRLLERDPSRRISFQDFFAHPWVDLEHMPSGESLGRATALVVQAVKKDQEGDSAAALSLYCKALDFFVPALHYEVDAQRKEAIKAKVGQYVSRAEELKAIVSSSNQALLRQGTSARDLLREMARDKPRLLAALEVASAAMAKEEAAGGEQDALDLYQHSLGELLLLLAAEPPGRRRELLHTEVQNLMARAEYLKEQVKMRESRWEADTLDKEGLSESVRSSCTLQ
RAF proto-oncogene serine/threonine-protein kinase (Homo sapiens), sequence (P04049 whole entry): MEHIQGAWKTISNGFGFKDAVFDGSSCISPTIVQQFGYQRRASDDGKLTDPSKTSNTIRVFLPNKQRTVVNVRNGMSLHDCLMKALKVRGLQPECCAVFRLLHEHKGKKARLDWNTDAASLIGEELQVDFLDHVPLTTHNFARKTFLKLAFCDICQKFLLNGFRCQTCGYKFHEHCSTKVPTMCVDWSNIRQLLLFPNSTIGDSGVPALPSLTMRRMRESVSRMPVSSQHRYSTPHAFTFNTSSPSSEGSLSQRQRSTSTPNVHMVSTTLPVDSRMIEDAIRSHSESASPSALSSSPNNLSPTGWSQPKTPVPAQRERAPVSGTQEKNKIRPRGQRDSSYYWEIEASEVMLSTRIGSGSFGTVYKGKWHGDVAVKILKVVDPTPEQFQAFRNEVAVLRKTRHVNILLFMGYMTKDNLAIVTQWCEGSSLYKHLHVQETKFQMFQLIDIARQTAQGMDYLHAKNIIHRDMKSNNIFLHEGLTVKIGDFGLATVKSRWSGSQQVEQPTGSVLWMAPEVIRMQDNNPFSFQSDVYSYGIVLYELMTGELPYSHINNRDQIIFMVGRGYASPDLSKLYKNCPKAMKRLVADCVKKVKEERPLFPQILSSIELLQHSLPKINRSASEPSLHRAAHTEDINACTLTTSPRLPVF

CN([C@@H]1CCc2c(CC(=O)O)c3ccccc3n2C1)S(=O)(=O)c1ccc(F)cc1 [MK-7246]
inactive: residual activity [1] 100% | residual activity [2] 100% | residual activity [3] 100% | residual activity [4] 100% | residual activity [5] 100% | residual activity [6] 87% | residual activity [7] 99% | residual activity [8] 100% | residual activity [9] 100% | residual activity [10] 100% | residual activity [11] 89% | residual activity [12] 70% | residual activity [13] 98% | residual activity [14] 79% | residual activity [15] 100% | residual activity [16] 100% | residual activity [17] 85% | residual activity [18] 100% | residual activity [19] 100% | residual activity [20] 93% | residual activity [21] 100% | residual activity [22] 100% | inhibition [23] -3.85% | residual activity [24] 100% | residual activity [25] 97% | residual activity [26] 100% | residual activity [27] 100% | residual activity [28] 100% | residual activity [29] 100% | residual activity [30] 77% | residual activity [31] 86% | residual activity [32] 90% | residual activity [33] 99% | residual activity [34] 100% | residual activity [35] 100% | residual activity [36] 100% | residual activity [37] 91% | residual activity [38] 80% | residual activity [39] 79% | residual activity [40] 100% | residual activity [41] 93% | residual activity [42] 100% | residual activity [43] 80% | residual activity [44] 100% | residual activity [45] 100%

CN([C@@H]1CCc2c(CC(=O)O)c3cc(S(C)(=O)=O)ccc3n2C1)S(=O)(=O)c1ccc(F)cc1
inactive: residual activity [1] 98% | residual activity [2] 93% | residual activity [3] 100% | residual activity [4] 100% | residual activity [5] 100% | residual activity [6] 93% | residual activity [7] 100% | residual activity [8] 100% | residual activity [9] 98% | residual activity [10] 83% | residual activity [11] 95% | residual activity [12] 81% | residual activity [13] 89% | residual activity [14] 92% | residual activity [15] 100% | residual activity [16] 100% | residual activity [17] 70% | residual activity [18] 67% | residual activity [19] 91% | residual activity [20] 84% | residual activity [21] 100% | residual activity [22] 83% | inhibition [23] -2.99% | residual activity [24] 93% | residual activity [25] 100% | residual activity [26] 93% | residual activity [27] 86% | residual activity [28] 100% | residual activity [29] 100% | residual activity [30] 99% | residual activity [31] 81% | residual activity [32] 75% | residual activity [33] 91% | residual activity [34] 100% | residual activity [35] 100% | residual activity [36] 91% | residual activity [37] 100% | residual activity [38] 89% | residual activity [39] 100% | residual activity [40] 86% | residual activity [41] 95% | residual activity [42] 100% | residual activity [43] 79% | residual activity [44] 96% | residual activity [45] 98%
